Measured values published in PMC11859184, “Synthesis and Evaluation of ^68Ga- and ^177Lu-Labeled [diF-Pro^14]Bombesin(6−14) Analogs for Detection and Radioligand Therapy of Gastrin-Releasing Peptide Receptor-Expressing Cancer” (Pharmaceuticals, 2025).
Read-outs that look alike come from different tables or passages of the source.

Test: Ex vivo biodistribution of 177Lu-labeled ligands in PC-3 tumor-bearing mice
Details: mouse, intravenous; for tissue uptake at 1 h: 1 h pi; for tissue uptake at 4 h: 4 h pi; for tissue uptake at 24 h: 24 h pi; for tissue uptake at 72 h: 72 h pi
Procedure: SPECT/CT imaging was conducted using an MI Labs (Houten, The Netherlands) U-SPECT-II/CT scanner with a custom-made ultra-high sensitivity big mouse collimator (2 mm pinhole size) following published procedure. The experiments were obtained in accordance with the same protocol established in the PET/CT imaging and ex vivo biodistributions section. The mice were used for SPECT/CT imaging and ex vivo biodistributions studies once the tumors reached a diameter of 5–8 mm. PC-3 tumor-bearing mice were sedated (2.5% isoflurane in O2) and injected with 31.4–36.9 MBq of the ^177Lu-labeled ligand through a lateral caudal tail vein. The mouse was imaged at 1, 4, 24, 72, and 120 h pi. At each time point, a 5 min CT scan was performed with 615 μA and 60 kV parameters for localization and attenuation, followed by two 30 min static SPECT scans in list mode with an energy window centered around 208 keV. The U-SPECT II software was used to reconstruct data, and the images were decay corrected to the time of injection with PMOD v 3.402 (PMOD Technologies GmbH, Fallanden, Switzerland).
For ex vivo biodistribution studies, the mice were injected with ~3–5 MBq of the ^177Lu-labeled ligand (n = 5). At 1, 4, 24, 72, and 120 h post-injection, the mice were anesthetized with 2% isoflurane, euthanized by CO2 inhalation, and the tissues/organs of interest were […] for radioactivity counting. The blocking study was performed at 1 h pi via co-injection of the ^177Lu-labeled ligand with 100 μg of [D-Phe^6,Leu-NHEt^13,des-Met^14]Bombesin(6–14).

[1] = kidneys, n = 5, read-out: Kidneys uptake
[2] = large intestine, n = 5, read-out: Large intestine uptake
[3] = liver, n = 5, read-out: Liver uptake
[4] = lungs, n = 5, read-out: Lungs uptake
[5] = muscle, n = 5, read-out: Muscle uptake
[6] = pancreas, n = 5, read-out: Pancreas uptake
[7] = small intestine, n = 5, read-out: Small intestine uptake
[8] = spleen, n = 5, read-out: Spleen uptake
[9] = stomach, n = 5, read-out: Stomach uptake
[10] = testes, n = 5, read-out: Testes uptake

`CC(C)C[C@@H](CN1CC(F)(F)C[C@H]1C(N)=O)NC(=O)[C@H](Cc1c[nH]cn1)NC(=O)CN(C)C(=O)[C@@H](NC(=O)[C@H](C)NC(=O)[C@H](Cc1c[nH]c2ccccc12)NC(=O)[C@H](CCC(N)=O)NC(=O)[C@@H](Cc1ccccc1)NC(=O)CN1CCC(NC(=O)CN2CCN(CC(=O)O)CCN(CC(=O)O)CCN(CC(=O)O)CC2)CC1)C(C)C` [[^177Lu]Lu-LW02080, metal not drawn] gave a tissue uptake at 120 h (heart, 120 h pi, n = 5, read-out: Heart uptake) of 0.01 ± 0.01 %ID/g, a tissue uptake at 1 h (kidneys, 100 ug, blocked (100 µg GRPR antagonist co-injected), read-out: Kidneys uptake) of 4.17 ± 0.95 %ID/g and a tissue uptake at 1 h [1] of 2.65 ± 0.48 %ID/g. For the same compound, the tissue uptake at 4 h [1] was 1.88 ± 0.35 %ID/g, the tissue uptake at 24 h [1] was 0.89 ± 0.28 %ID/g and the tissue uptake at 72 h [1] was 0.26 ± 0.08 %ID/g. The tissue uptake at 120 h (kidneys, 120 h pi, n = 5, read-out: Kidneys uptake) was 0.12 ± 0.03 %ID/g, the tissue uptake at 1 h (large intestine, 100 ug, blocked (100 µg GRPR antagonist co-injected), read-out: Large intestine uptake) was 0.21 ± 0.09 %ID/g and the tissue uptake at 1 h [2] was 0.17 ± 0.09 %ID/g. It also gave a tissue uptake at 4 h [2] of 0.34 ± 0.04 %ID/g, a tissue uptake at 24 h [2] of 0.15 ± 0.06 %ID/g and a tissue uptake at 72 h [2] of 0.06 ± 0.02 %ID/g. For the same compound, the tissue uptake at 120 h (large intestine, 120 h pi, n = 5, read-out: Large intestine uptake) was 0.02 ± 0.01 %ID/g, the tissue uptake at 1 h (liver, 100 ug, blocked (100 µg GRPR antagonist co-injected), read-out: Liver uptake) was 0.33 ± 0.08 %ID/g and the tissue uptake at 1 h [3] was 0.27 ± 0.1 %ID/g. It also gave a tissue uptake at 4 h [3] of 0.2 ± 0.08 %ID/g, a tissue uptake at 24 h [3] of 0.09 ± 0.01 %ID/g and a tissue uptake at 72 h [3] of 0.04 ± 0.01 %ID/g. For the same compound, the tissue uptake at 120 h (liver, 120 h pi, n = 5, read-out: Liver uptake) was 0.03 ± 0.01 %ID/g, the tissue uptake at 1 h (lungs, 100 ug, blocked (100 µg GRPR antagonist co-injected), read-out: Lungs uptake) was 0.45 ± 0.22 %ID/g and the tissue uptake at 1 h [4] was 0.43 ± 0.04 %ID/g. For the same compound, the tissue uptake at 4 h [4] was 0.13 ± 0.08 %ID/g, the tissue uptake at 24 h [4] was 0.05 ± 0.03 %ID/g and the tissue uptake at 72 h [4] was 0.02 %ID/g. It also gave a tissue uptake at 120 h (lungs, 120 h pi, n = 5, read-out: Lungs uptake) of 0.05 ± 0.03 %ID/g, a tissue uptake at 1 h (muscle, 100 ug, blocked (100 µg GRPR antagonist co-injected), read-out: Muscle uptake) of 0.15 ± 0.04 %ID/g and a tissue uptake at 1 h [5] of 0.06 ± 0.01 %ID/g. It also gave a tissue uptake at 4 h [5] of 0.01 %ID/g, a tissue uptake at 24 h [5] of 0.01 %ID/g and a tissue uptake at 1 h (pancreas, 100 ug, blocked (100 µg GRPR antagonist co-injected), read-out: Pancreas uptake) of 0.34 ± 0.09 %ID/g. For the same compound, the tissue uptake at 1 h [6] was 0.39 ± 0.08 %ID/g, the tissue uptake at 4 h [6] was 0.06 ± 0.02 %ID/g and the tissue uptake at 24 h [6] was 0.04 ± 0.01 %ID/g. The tissue uptake at 72 h [6] was 0.01 %ID/g, the tissue uptake at 120 h (pancreas, 120 h pi, n = 5, read-out: Pancreas uptake) was 0.01 %ID/g and the tissue uptake at 120 h (pancreas, all time points (1, 4, 24, 72, 120 h pi), read-out: pancreas uptake) was < 0.5 %ID/g. For the same compound, the tissue uptake at 1 h (small intestine, 100 ug, blocked (100 µg GRPR antagonist co-injected), read-out: Small intestine uptake) was 0.48 ± 0.18 %ID/g, the tissue uptake at 1 h [7] was 0.28 ± 0.03 %ID/g and the tissue uptake at 4 h [7] was 0.07 ± 0.03 %ID/g. For the same compound, the tissue uptake at 24 h [7] was 0.03 ± 0.01 %ID/g, the tissue uptake at 72 h [7] was 0.01 %ID/g and the tissue uptake at 120 h (small intestine, 120 h pi, n = 5, read-out: Small intestine uptake) was 0.01 %ID/g. For the same compound, the tissue uptake at 1 h (spleen, 100 ug, blocked (100 µg GRPR antagonist co-injected), read-out: Spleen uptake) was 0.16 ± 0.05 %ID/g, the tissue uptake at 1 h [8] was 0.14 ± 0.04 %ID/g and the tissue uptake at 4 h [8] was 0.07 ± 0.01 %ID/g. It also gave a tissue uptake at 24 h [8] of 0.07 ± 0.02 %ID/g, a tissue uptake at 72 h [8] of 0.04 ± 0.01 %ID/g and a tissue uptake at 120 h (spleen, 120 h pi, n = 5, read-out: Spleen uptake) of 0.03 %ID/g. For the same compound, the tissue uptake at 1 h (stomach, 100 ug, blocked (100 µg GRPR antagonist co-injected), read-out: Stomach uptake) was 0.26 ± 0.14 %ID/g, the tissue uptake at 1 h [9] was 0.08 ± 0.04 %ID/g and the tissue uptake at 4 h [9] was 0.02 %ID/g. It also gave a tissue uptake at 24 h [9] of 0.07 ± 0.04 %ID/g, a tissue uptake at 72 h [9] of 0.02 ± 0.01 %ID/g and a tissue uptake at 120 h (stomach, 120 h pi, n = 5, read-out: Stomach uptake) of 0.01 ± 0.01 %ID/g. The tissue uptake at 1 h (testes, 100 ug, blocked (100 µg GRPR antagonist co-injected), read-out: Testes uptake) was 0.22 ± 0.09 %ID/g, the tissue uptake at 1 h [10] was 0.2 ± 0.04 %ID/g and the tissue uptake at 4 h [10] was 0.03 ± 0.01 %ID/g. The tissue uptake at 24 h [10] was 0.03 ± 0.01 %ID/g, the tissue uptake at 72 h [10] was 0.01 %ID/g and the tissue uptake at 120 h (testes, 120 h pi, n = 5, read-out: Testes uptake) was 0.01 %ID/g.
